Assay [1] addresses T1, SLC19A1 (Homo sapiens, UniProt P41440).
T1 sequence (P41440 1-591): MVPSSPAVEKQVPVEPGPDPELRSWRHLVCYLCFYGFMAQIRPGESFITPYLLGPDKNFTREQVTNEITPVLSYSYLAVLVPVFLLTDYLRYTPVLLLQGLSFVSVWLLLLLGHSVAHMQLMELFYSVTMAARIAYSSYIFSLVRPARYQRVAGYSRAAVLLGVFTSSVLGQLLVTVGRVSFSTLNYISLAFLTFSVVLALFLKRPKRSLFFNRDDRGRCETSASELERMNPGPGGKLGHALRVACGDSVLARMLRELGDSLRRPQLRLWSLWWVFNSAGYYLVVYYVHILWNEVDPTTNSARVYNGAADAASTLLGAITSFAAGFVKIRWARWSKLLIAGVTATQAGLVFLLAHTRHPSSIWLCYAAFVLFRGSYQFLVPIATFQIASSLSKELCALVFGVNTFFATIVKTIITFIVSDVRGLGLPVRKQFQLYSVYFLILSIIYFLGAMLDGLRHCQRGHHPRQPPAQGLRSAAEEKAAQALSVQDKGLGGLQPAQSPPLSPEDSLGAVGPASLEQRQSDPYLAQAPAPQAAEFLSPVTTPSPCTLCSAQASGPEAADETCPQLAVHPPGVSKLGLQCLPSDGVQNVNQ
The assay is described as follows: Reporter response to CDNs in THP-1 cells with SLC19A1 knocked down or overexpressed. The note with it: SLC19A1 knockdown vs control, synthetic CDN 1.7 μg/ml, hIFNβ 100 ng/ml, 20 h.
Protocol: To test the role of SLC19A1 in the response to extracellular CDNs, THP-1 cell lines were created in which SLC19A1 was knocked-down or knocked-out, using conventional methods. SLC19A1 knockdown was confirmed and cells were stimulated with synthetic CDN or hIFNβ.
Panel A) Flow cytometry-generated dot plots of THP-1 cells expressing an ISRE-driven tdTomato reporter. Reporter expression was induced upon stimulation with the synthetic CDN (1.7 μg/ml) for 20 h. Panel B) Validation of targets identified by a genome-wide screen using THP-1 cells described in (Panel A) using conventional methods. Cells expressed a control vector or IRF3 or SLC19A1 gRNA. Cells were stimulated with (Panel B) synthetic CDN (1.7 μg/ml) or (Panel D) human interferon-beta (hIFNβ) (100 ng/ml) for 20 h. Cells were analyzed for reporter by flow cytometry as in (A). E) Indicated cell lines expressing SLC19A1 or vector only were stimulated with synthetic CDN (1.7 μg/ml). Reporter expression was measured 20 h after stimulation.

Assay [2] has as its target T1, SLC19A1. The note with it: at high doses; cited from earlier work.
Assay [3] relates to THP-1 cells expressing an ISRE-driven tdTomato reporter. As to the kind of experiment: Synthetic CDN or hIFNβ stimulation of tdTomato reporter THP-1 cells in the presence of sulfasalazine. It counts as cell-based, human. An excerpt: To identify genes encoding molecules involved in this process, a reporter system was created to detect STING activation in response to extracellular CDNs, in order to perform a genetic screen. The reporter was composed of an Interferon Stimulatory Response Element (ISRE) cassette driving the expression of the fluorescent protein tdTomato. […] Subsequently, THP-1 cells containing the reporter were transduced with a genome-wide library of guide RNAs (gRNAs), which suppress expression of target genes. The library targeted 20,000 genes within the human genome. The gRNA library-expressing THP-1 cells were stimulated with synthetic CDN, and the cells were subsequently sorted into two populations based on either low (hyporesponsive) or high (hyper-responsive) levels of tdTomato reporter expression. These populations were sequenced to reveal the RNA targets. As expected, gRNAs targeting components of the STING pathway, including IRF3 and STING itself, were enriched in the hyporesponsive cells and depleted in the hyper-responsive cells, corroborating the success of the screening procedure. Other “hits” in the screen were examined for their role in CDN transport.
The transport activity of folate by SLC19A1 can be altered by a variety of organic and inorganic anions, including the compound sulfasalazine (Jansen et al. “Sulfasalazine is a potent inhibitor of the reduced folate carrier: Implications for combination therapies with methotrexate in rheumatoid arthritis.” Arthritis Rheum. 50, 2130-2139 (2004); Goldman, “The characteristics of the membrane transport of amethopterin and the naturally occurring folates.” Ann. N. Y. Acad. Sci. 186, 400-22 (1971)). […] We therefore tested whether sulfasalazine blocks the response of cells to CDNs.
FIG. 2. Panel A) THP-1 cells were stimulated with synthetic CDN (2.5 μg/ml) in the presence of high concentrations of sulfasalazine (SSZ) or vehicle. Reporter expression was measured 20 h post stimulation. […] Reporter expression was measured 20 h post stimulation.

“Also recorded” adds a separate entry of the source.

Take `Nc1ncnc2c1ncn2[C@@H]1O[C@@H]2COP(=O)(O)O[C@H]3[C@@H](O)[C@H](n4cnc5c(N)ncnc54)O[C@@H]3COP(=O)(O)O[C@H]2[C@H]1O` [CDA, cyclic di-AMP]: the “effect of knocking down SLC19A1 expression on the response to the stimulant” value at SLC19A1 [1] is given as “reduced the response”.
Regarding `O=C(O)c1cc(/N=N/c2ccc(S(=O)(=O)Nc3ccccn3)cc2)ccc1O` [sulfasalazine], the “transport of folates and folate-derivatives by SLC19A1” value on SLC19A1 [2] was “non-competitively inhibits”. Further, in assay [3] (either low or high sulfasalazine concentrations), the “response of the cells to hIFNβ” value was “only marginally affected”. The “response to synthetic CDN stimulation (reporter expression)” value in assay [3] (high concentration (1000 μM) of sulfasalazine, synthetic CDN 2.5 μg/ml, 20 h post stimulation) is given as “complete blocking; also recorded: almost completely blocked”. In assay [3] (low concentrations of sulfasalazine (e.g. 100 μM), synthetic CDN 1.25 μg/ml, 20 h post stimulation), the “responsiveness of cells to synthetic CDN compared to untreated cells (reporter expression)” value is on record as “significantly increased”.

Source of the values: patent US20210275547A1, “Methods of Modulating Activity of a Cyclic Dinucleotide (CDN) with a CDN Transporter-Modulating Agent” (THE REGENTS OF THE UNIVERSITY OF CALIFORNIA, priority 2018, published 2021).
